{"source": "paper PMC1972348", "about": "“Pharmacokinetics and cytotoxicity of RSU-1069 in subcutaneous 9L tumours under oxic and hypoxic conditions” (British Journal of Cancer, 1991)", "key": {"[1]": {"settings": "mice, i.p. doses of 50 and 100 mg kg-1, ref Walton & Workman (1988); cited from earlier work"}, "[2]": {"settings": "B16 and HX 118 melanomas, ref Deacon et al., 1986; Walling et al., 1989; cited from earlier work"}, "KHT and RIF tumours": {"tested_on": "KHT and RIF tumours", "set-up": "method as in Bremner et al. (1990)", "settings": "tumours clamped 60 min after 80 mg kg-1, ref Bremner et al. (1990); cited from earlier work"}, "[3]": {"settings": "KHT fibrosarcoma, ref Walton & Workman, 1988; cited from earlier work"}, "hypoxic cells": {"tested_on": "hypoxic cells", "set-up": "method as in Adams et al., 1984a", "settings": "estimated at plasma level of 2-4 µg ml-1, ref Adams et al., 1984a; cited from earlier work"}, "9L cells": {"tested_on": "9L cells", "assay": "In vitro colony formation of 9L cells treated at defined oxygen concentrations", "format": "cell-based, rat", "source_text": "Br 1 acr(91,6,4448?McilnPesLd,19 Pharmacokinetics and cytotoxicity of RSU-1069 in subcutaneous 9L tumours under oxic and hypoxic conditions K-H. Wong',*, C.J. Koch2, C. A. Wallen' & K.T. Wheeler' 'Experimental Radiation Oncology, Department of Radiology, Bowman Gray School of Medicine, Winston-Salem, North Carolina 27103; and 2Department of Radiation Oncology, University of Pennsylvania, Philadelphia, Pennsylvania 19104, USA. Summary The acute toxicity, pharmacokinetics and hypoxic cytotoxicity of RSU-1069 were investigated using the subcutaneous (sc) rat 9L tumour model. The pharmacokinetics were studied after i.p. injection of RSU-1069 (20mgkg-' or 100mgkg-'). […] The 2-nitroimidazoles, originally designed as electron affinic radiosensitisers, have been reported to selectively kill hypoxic cells (Adams et al., 1980). This hypoxic cytotoxicity appears to be related to the anaerobic bioreductive metabolism of the drugs that releases reactive cytotoxic metabolites (Clark et al., 1980; Brown, 1982). By adding an alkylating group to the side chain of a 2-nitroimidazole, Adams et al. (1984a,b) postulated that a more efficient chemopotentiator and killer of hypoxic cells could be made without the compound losing its ability to sensitise hypoxic cells to ionising radiation. RSU-1069 was one of the compounds synthesised to achieve this goal. […]"}, "sc 9L tumour cells [4]": {"tested_on": "sc 9L tumour cells", "set-up": "AUC30: unit not given beside the values", "source_text": "(§1) Br 1 acr(91,6,4448?McilnPesLd,19 Pharmacokinetics and cytotoxicity of RSU-1069 in subcutaneous 9L tumours under oxic and hypoxic conditions K-H. Wong',*, C.J. Koch2, C. A. Wallen' & K.T. Wheeler' 'Experimental Radiation Oncology, Department of Radiology, Bowman Gray School of Medicine, Winston-Salem, North Carolina 27103; and 2Department of Radiation Oncology, University of Pennsylvania, Philadelphia, Pennsylvania 19104, USA. Summary The acute toxicity, pharmacokinetics and hypoxic cytotoxicity of RSU-1069 were investigated using the subcutaneous (sc) rat 9L tumour model. The pharmacokinetics were studied after i.p. injection of RSU-1069 (20mgkg-' or 100mgkg-'). […] The 2-nitroimidazoles, originally designed as electron affinic radiosensitisers, have been reported to selectively kill hypoxic cells (Adams et al., 1980). This hypoxic cytotoxicity appears to be related to the anaerobic bioreductive metabolism of the drugs that releases reactive cytotoxic metabolites (Clark et al., 1980; Brown, 1982). By adding an alkylating group to the side chain of a 2-nitroimidazole, Adams et al. (1984a,b) postulated that a more efficient chemopotentiator and killer of hypoxic cells could be made without the compound losing its ability to sensitise hypoxic cells to ionising radiation. RSU-1069 was one of the compounds synthesised to achieve this goal. RSU-1069 has an aziridine group attached via a side chain to a 2-nitroimidazole. […] Although the ability to kill cells in vivo has been studied (Adams et al., 1984a,b; Chaplin et al., 1986; Olive et al., 1987; Cole et al., 1989; Siemann, 1989) the presence of both oxic and hypoxic cells in these tumours has made it difficult to determine if the relative efficiency of RSU-1069 for killing oxic and hypoxic cells in vivo is similar to that reported in vitro. In this report, we used the subcutaneous (sc) 9L tumour model to study the relative ability of RSU-1069 to kill oxic and hypoxic tumours cells in vivo."}, "[5]": {"settings": "ref Horwich et al., 1986, cited from earlier work"}, "[6]": {"source_text": "as §1"}, "other in vitro cells": {"tested_on": "other in vitro cells", "set-up": "method as in Stratford et al., 1986", "settings": "ref Stratford et al., 1986; cited from earlier work"}, "sc 9L tumour cells [7]": {"tested_on": "sc 9L tumour cells", "set-up": "method as in Wong et al., 1989; 1990", "settings": "Table I, clamped sc 9L tumours, ref Wong et al., 1989; 1990; cited from earlier work"}, "[8]": {"set-up": "method as in Wong et al., 1989; 1990", "settings": "sc 9L tumours, ref Wong et al., 1989; 1990; cited from earlier work"}, "[9]": {"settings": "20 mg kg-1 i.p., unclamped tumours"}, "[10]": {"settings": "100 mg kg-1 i.p., unclamped tumours"}, "[11]": {"settings": "both doses (20 and 100 mg kg-1)"}}, "note": "Like-named read-outs stand apart in the source and are kept apart here."}
{"smiles": "O=[N+]([O-])c1nccn1CC(O)CN1CC1", "note": "(stereo not shown) [RSU-1069]", "values": [{"measurement": "difference in the volume of distribution", "setting": "[1]", "value": 2, "unit": "fold"}, {"measurement": "increase in the elimination t1/2", "setting": "[1]", "value": 37, "unit": "%"}, {"measurement": "tumour/plasma ratio", "setting": "[2]", "value": "3.7-4"}, {"measurement": "increase in time for tumours to reach four times their treatment size", "setting": "KHT and RIF tumours", "value": "3-4 fold"}, {"measurement": "tumour/plasma ratio", "setting": "[3]", "value": "0.2-0.4"}, {"measurement": "radiosensitising enhancement ratio", "setting": "hypoxic cells", "value": 1.2}, {"measurement": "SER in vitro", "setting": "9L cells; 2.1% O2 vs less than 7.5 x 10(-3)% O2", "value": "approximately 50"}, {"measurement": "SER in vitro", "setting": "9L cells; 21% O2 vs less than 7.5 x 10(-3)% O2", "value": "approximately 100"}, {"measurement": "cell survival", "setting": "sc 9L tumour cells [4]; 20 mg kg-1, clamped tumours", "value": "approximately 25%"}, {"measurement": "cell survival", "setting": "sc 9L tumour cells [4]; 20 mg kg-1, unclamped tumours", "value": "~100", "unit": "%"}, {"measurement": "cell-kill kinetics as a function of clamping time", "setting": "sc 9L tumour cells [4]; 50 mg kg-1, clamped for various times", "value": "little additional cell kill was achieved after 40 min of clamping"}, {"measurement": "surviving fraction", "setting": "sc 9L tumour cells [4]; 50 mg kg-1, hypoxic (clamped 2 h)", "value": "~0.001"}, {"measurement": "surviving fraction", "setting": "sc 9L tumour cells [4]; 50 mg kg-1, oxic (unclamped)", "value": "about 0.6"}, {"measurement": "AUC30", "setting": "sc 9L tumour cells [4]; rat, in vivo", "value": 0.15}, {"measurement": "efficiency for killing hypoxic sc 9L tumour cells in situ relative to misonidazole or SR2508", "setting": "sc 9L tumour cells [4]; rat, in vivo, sc", "value": "300-1000 fold"}, {"measurement": "sensitiser enhancement ratio (SER), hypoxic vs oxic sc 9L cells in vivo", "setting": "sc 9L tumour cells [4]; rat, in vivo, sc", "value": 4.8}, {"measurement": "peak plasma level", "setting": "[5]; clinical trial, after a 70 mg kg-1 dose (so in the source)", "value": "2 to 4", "unit": "µg/mL"}, {"measurement": "dose limited by nongenotoxic side-effects such as emesis", "setting": "[5]; phase I clinical trial", "value": "less than 70 mg m-2"}, {"measurement": "maximum tumour/plasma ratio", "setting": "[6]; 20 mg kg-1, in 60 min", "value": "six"}, {"measurement": "plasma elimination t1/2", "setting": "[6]; 20 mg kg-1 i.p.", "value": "47.8 ± 6.3", "unit": "min"}, {"measurement": "time to peak plasma concentration", "setting": "[6]; 20 mg kg-1 i.p.", "value": "about 10 min"}, {"measurement": "time to peak tumour concentration", "setting": "[6]; 20 mg kg-1 i.p.", "value": 10, "unit": "min"}, {"measurement": "peak plasma concentration", "setting": "[6]; 20 mg kg-1 i.p., rat", "value": 3, "unit": "micrograms ml-1"}, {"measurement": "peak tumour concentration", "setting": "[6]; [9]", "value": 4, "unit": "micrograms g-1"}, {"measurement": "tumour elimination t1/2", "setting": "[6]; [9]", "value": "41.9 ± 6.1", "unit": "min"}, {"measurement": "time to return to unclamped tumour concentration after release of the clamp", "setting": "[6]; 100 mg kg-1", "value": "about 60 min"}, {"measurement": "tumour/plasma ratio in clamped tumours", "setting": "[6]; 100 mg kg-1, about 90 min after clamping", "value": 0.1}, {"measurement": "drug concentration in clamped tumours", "setting": "[6]; 100 mg kg-1, beyond 120 min after clamping", "value": "undetectable"}, {"measurement": "peak tumour/plasma ratio", "setting": "[6]; 100 mg kg-1, unclamped, in about 45 min", "value": "exceeded four"}, {"measurement": "time to peak plasma concentration", "setting": "[6]; 100 mg kg-1 i.p.", "value": "approximately 25 min"}, {"measurement": "peak plasma concentration", "setting": "[6]; 100 mg kg-1 i.p., rat", "value": 40, "unit": "micrograms ml-1"}, {"measurement": "tumour elimination t1/2", "setting": "[6]; 100 mg kg-1 i.p., tumour clamped 30 min after administration", "value": "10.9 ± 1.4", "unit": "min"}, {"measurement": "plasma elimination t1/2", "setting": "[6]; 100 mg kg-1 i.p., tumour unclamped", "value": "39.3 ± 11.1", "unit": "min"}, {"measurement": "peak tumour concentration", "setting": "[6]; [10]", "value": 50, "unit": "micrograms g-1"}, {"measurement": "time to peak tumour concentration", "setting": "[6]; [10]", "value": 30, "unit": "min"}, {"measurement": "tumour elimination t1/2", "setting": "[6]; [10]", "value": "36.1 ± 9.6", "unit": "min"}, {"measurement": "constant unclamped tumour/plasma ratio after the maximum", "setting": "[6]; [11]", "value": "about 2"}, {"measurement": "maximum unclamped tumour/plasma ratio", "setting": "[6]; [11]", "value": "4-6"}, {"measurement": "elimination from clamped sc 9L tumours faster than MISO or SR-2508", "setting": "[6]; rat, in vivo", "value": "four"}, {"measurement": "peak plasma concentration at 100 mg kg-1 relative to 20 mg kg-1", "setting": "[6]; rat, in vivo", "value": "about 13 times"}, {"measurement": "peak tumour concentration at 100 mg kg-1 relative to 20 mg kg-1", "setting": "[6]; rat, in vivo", "value": "about 13 times"}, {"measurement": "SER in vitro", "setting": "other in vitro cells", "value": "≤ 100"}]}
{"smiles": "O=C(Cn1ccnc1[N+](=O)[O-])NCCO", "note": "[SR-2508]", "values": [{"measurement": "AUC30", "setting": "sc 9L tumour cells [7]", "value": 748, "unit": "µg·h/mL"}, {"measurement": "time to return to unclamped tumour level after release of the clamp", "setting": "[8]", "value": "about 90 min"}]}
{"smiles": "COCC(O)Cn1ccnc1[N+](=O)[O-]", "note": "(stereo not shown) [MISO, misonidazole]", "values": [{"measurement": "AUC30", "setting": "sc 9L tumour cells [7]", "value": 877, "unit": "µg·h/mL"}, {"measurement": "time to return to unclamped tumour level after release of the clamp", "setting": "[8]", "value": "about 45 min"}]}
